Test results as given in patent US8962606B2, “Substituted benzosulphonamides” (Bayer Intellectual Property GmbH, priority 2009, dated 2015).

Experiments:
[1] = test system: A375 cells [human melanoma cell line, expressing mutant BRAF V600E]; test: A375 Crystal Violet (CV) Proliferation Assay [Assay 5]; assay type: cell-based; details: A-375, 96 h, crystal violet staining, 4 days incubation
Description: Assay 5: A375 Crystal Violet (CV) Proliferation Assay:
Cell proliferation for A375 cells [human melanoma cell line, expressing mutant BRAF V600E] was measured by crystal violet (CV) staining: Cultivated human A375 cells were plated out in a density of 1500 cells/measurement point in 200 μl of growth medium (DMEM/HAMS F12 with 10% FBS and 2 mM Glutamine) in a 96-well multititer plate. After 24 hours, the cells from a plate (zero plate) were stained with crystal violet (see below), while the medium in the other plates was replaced by fresh culture medium (200 μl) to which the test substances had been added in various concentrations (0 μM, and in the range 0.3 nM-30 μM; the final concentration of the solvent dimethyl sulphoxide was 0.5%). The cells were incubated in the presence of the test substances for 4 days. The cell proliferation was determined by staining the cells with crystal violet: the cells were fixed by adding 20 μl/measurement point of an 11% glutaraldehyde solution at room temperature for 15 min. After the fixed cells had been washed three times with water, the plates were dried at room temperature. The cells were stained by adding 100 μl/measurement point of a 0.1% crystal violet solution (pH adjusted to pH 3 by adding acetic acid). After the stained cells had been washed three times with water, the plates were dried at room temperature. The dye was dissolved by adding 100 μl/measurement point of a 10% acetic acid solution, and the extinction was determined by photometry at a wavelength of 595 nm. The percentage change in cell growth was calculated by normalizing the measurements to the extinctions of the zero point plate (=0%) and the extinction of the untreated (0 μM) cells (=100%). The IC50 values were determined by means of a 4-parameter fit using the company's own software.

[2] = test system: HCT116 cells [human colorectal cell line]; test: HCT116 Cell Titer Glo (CTG) Proliferation Assay [Assay 1]; assay type: cell-based; details: HCT-116, 72 hours incubation
Source text: Cell Titer Glo Proliferation Assay
The adherent tumor cell proliferation assay used to test the compounds of the present invention involves a readout called Cell Titre-Glo developed by Promega (Cunningham, B A “A Growing Issue: Cell Proliferation Assays. Modern kits ease quantification of cell growth” The Scientist 2001, 15(13), 26, and Crouch, S P et al., “The use of ATP bioluminescence as a measure of cell proliferation and cytotoxicity” Journal of Immunological Methods 1993, 160, 8 1-88).
Assay 1: HCT116 Cell Titer Glo (CTG) Proliferation Assay:
(§1) HCT116 cells [human colorectal cell line, expressing […]] were plated at a density of 3000 cells/well in 96 well black-clear bottom tissue culture plates (Costar 3603 black/clear bottom) in 100 μl/well DMEM medium (DMEM/Ham's F12) with 10% Fetal Bovine Serum (FBS) and stable Glutamine incubated at 37° C. Sister wells were plated in separate plate for time zero determination. All plates were incubated overnight at 37° C. Take down time zero plate: 100 μl/well CTG solution (Promega Cell Titer Glo solution) were added to time zero wells in sister plate; the plates were mixed for 2 min on orbital shaker to ensure cell lysis, incubated for 10 minutes, luminescence was read on VICTOR3 (Perkin Elmer). Twenty-four hours after cell seeding, test compounds were diluted in 50 μl medium and were added at a final concentration range from as high 10 μM to as low […] depending on the activities of the tested compounds in serial dilutions at a final DMSO concentration of 0.4%. Cells were incubated for 72 hours at 37° C. after addition of the test compound. Then, using a Promega Cell Titer Glo Luminescent® assay kit, 100 μl microliter lysis buffer containing of the enzyme luciferase and its substrate, luciferin mixture, were added to each well and incubated for 10 min at room temperature in the dark to stabilize luminescence signal. The samples were read on VICTOR3 (Perkin Elmer) using Luminescence protocol. The percentage change in cell growth was calculated by normalizing the measurements to the extinctions of the zero point plate (=0%) and the extinction of the untreated (0 μM) cells (=100%). The IC50 values were determined by means of a 4-parameter fit using the company's own software.

[3] = test system: A549 cells [human non small cell lung cancer cell line, expressing mutant K-Ras G12S]; test: A549 Cell Titer Glo (CTG) Proliferation Assay [Assay 2]; assay type: cell-based; details: 72 hours incubation
Description: as §1
Assay 2: A549 Cell Titer Glo (CTG) Proliferation Assay:
A549 cells [human non small cell lung cancer cell line, expressing mutant K-Ras G12S] were seeded at a density of 2000 cells/well in 96 well black-clear bottom tissue culture plates (Costar 3603 black/clear bottom) in 100 μl/well DMEM medium (DMEM/Ham's F12) with 10% Fetal Bovine Serum (FBS) and stable Glutamine incubated at 37° C. Cell Titer Glo proliferation assays for A549 cells were performed with the same protocol as described afore for HCT116 cells.

[4] = test system: MEK1/2; details: second-generation MEK1/2 inhibitor, background [17]; cited from earlier work
[5] = test system: colon cancer; details: oral treatment, mouse models, background [18]; cited from earlier work

## CCS(=O)(=O)Nc1cccc(Oc2cc(F)cc(Nc3ccc(I)cc3F)c2NS(=O)(=O)C2CC2)c1 [Example 1, N-(2-{3-[(ethylsulfonyl)amino]phenoxy}-4-fluoro-6-[(2-fluoro-4-iodophenyl)amino]phenyl)cyclopropanesulfonamide]
[1]
  IC50: 0.351 nM
[2]
  IC50: 26.5 nM
[3]
  IC50: 18.1 nM

## CCS(=O)(=O)Nc1cccc(Oc2cc(F)cc(Nc3ccc(I)cc3F)c2NS(C)(=O)=O)c1 [Example 2, N-(3-{5-fluoro-3-[(2-fluoro-4-iodophenyl)amino]-2-[(methylsulfonyl)-amino]phenoxy}-phenyl)ethane-sulfonamide]
[1]
  IC50: 0.899 nM
[2]
  IC50: 28.3 nM
[3]
  IC50: 39.4 nM

## CCS(=O)(=O)Nc1cccc(Oc2cc(F)cc(Nc3ccc(I)cc3F)c2NS(=O)(=O)CC)c1 [Example 3, N-(3-{2-[(ethylsulfonyl)amino]-5-fluoro-3-[(2-fluoro-4-iodophenyl)amino]-phenoxy}phenyl)-ethanesulfonamide]
[1]
  IC50: 1.56 nM
[2]
  IC50: 31.7 nM
[3]
  IC50: 73.6 nM

## CCS(=O)(=O)Nc1cccc(Oc2cc(F)cc(Nc3ccc(I)cc3F)c2NS(=O)(=O)C(C)C)c1 [Example 4, N-(2-{3-[(ethylsulfonyl)amino]phenoxy}-4-fluoro-6-[(2-fluoro-4-iodophenyl)amino]-phenyl)propane-2-sulfonamide]
[1]
  IC50: 15.6 nM
[2]
  IC50: 53.7 nM
[3]
  IC50: 92.5 nM

## CCS(=O)(=O)Nc1cccc(Oc2cc(F)cc(Nc3ccc(I)cc3F)c2NS(N)(=O)=O)c1 [Example 6, N-(3-{5-fluoro-3-[(2-fluoro-4-iodophenyl)amino]-2-(sulfamoylamino)phenoxy}phenyl)ethanesulfonamide]
[1]
  IC50: 2.44 nM
[2]
  IC50: 100 nM
[3]
  IC50: 68.9 nM

## CCS(=O)(=O)Nc1cccc(Oc2cc(F)cc(Nc3ccc(I)cc3F)c2NS(=O)(=O)C2CC2)c1C [Example 7, N-(2-{3-[(ethylsulfonyl)amino]-2-methylphenoxy}-4-fluoro-6-[(2-fluoro-4-iodophenyl)amino]phenyl)cyclopropanesulfonamide]
[1]
  IC50: 0.171 nM
[2]
  IC50: 3 nM

## CCS(=O)(=O)Nc1cccc(Oc2cc(F)cc(Nc3ccc(I)cc3F)c2NS(N)(=O)=O)c1C [Example 8, N-(3-{5-fluoro-3-[(2-fluoro-4-iodophenyl)amino]-2-(sulfamoylamino)phenoxy}-2-methylphenyl)ethanesulfonamide]
[1]
  IC50: 0.68 nM
[2]
  IC50: 10 nM
[3]
  IC50: 4.78 nM

## C#Cc1ccc(Nc2cc(F)cc(Oc3cccc(NS(=O)(=O)CC)c3)c2NS(=O)(=O)C2CC2)c(F)c1 [Example 9, N-(2-{3-[(ethylsulfonyl)amino]phenoxy}-6-[(4-ethynyl-2-fluorophenyl)amino]-4-fluorophenyl)cyclopropanesulfonamide]
[1]
  IC50: 2.39 nM
[2]
  IC50: 59.6 nM
[3]
  IC50: 137 nM

## C#Cc1ccc(Nc2cc(F)cc(Oc3cccc(NS(=O)(=O)CC)c3)c2NS(N)(=O)=O)c(F)c1 [Example 10, N-(3-{3-[(4-ethynyl-2-fluorophenyl)amino]-5-fluoro-2-(sulfamoylamino)phenoxy}phenyl)ethanesulfonamide]
[1]
  IC50: 7.93 nM
[2]
  IC50: 70 nM
[3]
  IC50: 86.7 nM

## NS(=O)(=O)Nc1cccc(Oc2cc(F)cc(Nc3ccc(I)cc3F)c2NS(=O)(=O)C2CC2)c1 [Example 11, N-{4-fluoro-2-[(2-fluoro-4-iodophenyl)amino]-6-[3-(sulfamoylamino)phenoxy]phenyl}cyclopropanesulfonamide]
[2]
  IC50: 7.04 nM
[3]
  IC50: 6.65 nM

## CC(C)S(=O)(=O)Nc1cccc(Oc2cc(F)cc(Nc3ccc(I)cc3F)c2NS(=O)(=O)C2CC2)c1 [Example 12, N-(4-fluoro-2-[(2-fluoro-4-iodophenyl)amino]-6-{3-[(isopropylsulfonyl)amino]phenoxy}phenyl)cyclopropanesulfonamide]
[1]
  IC50: 0.729 nM
[2]
  IC50: 32 nM
[3]
  IC50: 36.1 nM

## NS(=O)(=O)Nc1cc(Oc2cc(F)cc(Nc3ccc(I)cc3F)c2NS(=O)(=O)C2CC2)ccc1F [Example 14, N-{4-fluoro-2-[(2-fluoro-4-iodophenyl)amino]-6-[4-fluoro-3-(sulfamoylamino)phenoxy]phenyl}cyclopropanesulfonamide]
[1]
  IC50: 18.6 nM

## O=C(NOCC1CC1)c1ccc(F)c(F)c1Nc1ccc(I)cc1Cl [PD184352]
[4]
  IC50: low nanomolar range
[5]
  colon cancer growth in vivo: inhibit colon cancer growth in vivo

## NC(=O)c1c(Nc2ccc(I)cc2F)cc(F)cc1Oc1cccc(NS(N)(=O)=O)c1 [reference compound]
[1]
  IC50: 4.53 nM
[2]
  IC50: 208 nM
[3]
  IC50: 319 nM
